From patent US11274132B2, “Combined preparations of PKM2 modulators and HMGB1” (Ruprecht-Karls-Universität Heidelberg, priority 2015, dated 2022) come the findings set out here.

One assay relates to colorectal cancer cells. The assay can be described thus: Crystal violet cytotoxicity assay, cell lines not given. It is filed as cell-based. Conditions: HMGB1 80 nM, 72 h. How it is done: Human colon carcinoma cell lines SW480, HCT116, HT29 and Caco2, the human glioblastoma cell line U251MG and the Natural killer cell line NK-92 Cl were purchased from ATCC. Cell lines were regularly tested for contamination by multiplex PCR performed in the Genomics and Proteomics Core Facility 2 (DKFZ, Heidelberg, Germany). For experiments, cells were cultured for no more than 10 passages. Rho zero cells were generated as described earlier 1. (Gdynia, G. et al. Danger signaling protein HMGB1 induces a distinct form of cell death accompanied by formation of giant mitochondria. Cancer research 70, 8558-8568). Cells used in the experiments were cultured in RPMI (#1640, colon carcinomas, NK cells) or DMEM high glucose (#41965-039, glioblastoma cells) medium. Rho zero cells were generated as described earlier (Gdynia, G. et al. ibd.). Briefly, cells were cultured in RPMI medium (10% FCS, 1% P/S) supplemented with 250 ng/ml ethidiumbromide, 50 μg/ml L-pyruvate and 5 mg/ml uridine over a period of 12 weeks. For cytotoxicity measurements, cells were cultured in 96-well plates, treated with recombinant human HMGB1 protein (Sigma-Aldrich®), glycyrrhizinic acid ((3β, 18α)-30-hydroxy-11, 30-dioxoolean-12-en-3-yl 2-O-β-D-glucopyranuronosyl-β-D-glucopyranosiduronic acid)) (Sigma-Aldrich®), 10 μM (non-toxic) or 100 μM (cytotoxic) P-M2tide (aa sequence: GGAVDDDpYAQFANGG; #BML-P239-0001; Enzo Life Sciences) or 100 μM ML-265 (Cayman Chemical), then cell viability was assessed by crystal violet staining (Gillies, R. J., Didier, N. & Denton, M. Determination of cell number in monolayer cultures. Analytical biochemistry 159, 109-113 (1986)). Malic enzyme 1 knock-down was performed with 40 nM siRNA using lipofectamine in 6-well plates followed by treatment with 80 nM HMGB1 for 72 h. Sequences of siRNA were: ME1, 5′-[…]-3′ and scrambled control 5′-CCUGCAGUACUUCAAGCGGtt-3′. PKM2 siRNA was from Santa Cruz. A nonspecific siRNA served as control (Dharmacon, Schwerte, Germany). For overexpression of PKM2 or ME1, cells were transfected with pCMV-PKM2 (Sino Biological Inc., Beijing, China) or pCMV-ME1 (OriGene, Rockville, Md., USA) using Lipofectamine 2000. For cytotoxicity measurements confluent cells were cultured in 96-well plates if not otherwise indicated. Cytotoxic activity of supernatants from stimulated NK cells was assessed in 96-well plates for 3 days with RPMI medium as reference. Recombinant human HMGB1 (10 ng, Sigma) suited as positive control. For mass isotopomer assays, cells were cultured in glucose- or glutamine-free medium supplemented with either uniformly labeled (U)-13C-D-glucose or U-13C-glutamine (Sigma-Aldrich®).

The next assay relates to pentose phosphate shunt. The assay can be described thus: Incorporation of 14C into RNA ribose from U-14C-labelled glucose. It is filed as cell-based, human. The settings on record: HMGB1 80 nM, 24 h. As for the experimental part:
Lactate derived from the metabolism of ^13C6-D-glucose or ^13C5-glutamine was determined by comparing the CH3 group intensities of labeled and non-labeled lactate in NMR. Mitochondrial respiration was measured using an Oroboros 1 oxygraph system. Glycolysis was measured by monitoring the conversion of 5-^3H-Glucose to ^3H2O. Incorporation of ^14C into RNA ribose from U-^14C-labelled glucose was taken as glucose utilization in the pentose phosphate shunt. Enzymatic activities were determined in subcellular fractions as previously described^24.

Regarding “HMGB1: recombinant human HMGB1 protein (Sigma-Aldrich); High Mobility Group Box 1 polypeptide, human, SEQ ID NO: 4”, in the assay on colorectal cancer cells, the “sensitivity of cells to HMGB1 after PKM2 down-regulation (siRNA)” value is “sensitized” and the “sensitivity of cells to HMGB1 after PKM2 overexpression” value is listed as “more resistant”. In addition, the “flux of glycolytic intermediates into the pentose phosphate shunt” value with pentose phosphate shunt is reported as “increased flux”.
